# Assay results published in paper PMC10507085, “Pharmacological inhibition of TBK1/IKKε blunts immunopathology in a murine model of SARS-CoV-2 infection” (Nature Communications, 2023).
# How the values were obtained:
# Test in all cases: biochemical
# Set-up in all cases: KINOMEscan competition binding, DNA-tagged kinase against immobilised ligand, qPCR read-out
# Settings in all cases: read-out: Percent Control
# [1] = molecular target: T1, ADRBK1 (Homo sapiens, UniProt P25098)
# T1 construct: gene GRK2
# [2] = molecular target: CDK3 (Homo sapiens, UniProt Q00526)
# CDK3, sequence (Q00526 whole entry): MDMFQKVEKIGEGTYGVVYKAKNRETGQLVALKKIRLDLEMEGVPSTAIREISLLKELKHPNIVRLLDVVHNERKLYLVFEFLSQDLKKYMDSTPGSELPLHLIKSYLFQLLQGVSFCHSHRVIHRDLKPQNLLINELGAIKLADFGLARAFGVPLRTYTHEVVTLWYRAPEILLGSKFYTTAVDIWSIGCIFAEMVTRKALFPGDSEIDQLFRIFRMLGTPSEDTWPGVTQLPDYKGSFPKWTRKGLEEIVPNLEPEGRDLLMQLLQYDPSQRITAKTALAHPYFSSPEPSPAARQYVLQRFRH
# [3] = molecular target: CDK7 (Homo sapiens, UniProt P50613)
# CDK7, sequence (P50613 whole entry): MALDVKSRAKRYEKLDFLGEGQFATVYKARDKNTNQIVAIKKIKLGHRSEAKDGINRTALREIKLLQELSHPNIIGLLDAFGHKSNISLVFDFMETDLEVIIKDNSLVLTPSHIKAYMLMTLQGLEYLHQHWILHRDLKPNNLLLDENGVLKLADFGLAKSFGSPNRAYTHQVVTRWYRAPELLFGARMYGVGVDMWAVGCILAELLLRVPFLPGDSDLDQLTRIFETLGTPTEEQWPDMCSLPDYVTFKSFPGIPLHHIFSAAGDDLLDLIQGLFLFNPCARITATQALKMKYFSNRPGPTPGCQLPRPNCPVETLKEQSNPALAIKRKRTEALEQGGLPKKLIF
# [4] = molecular target: CHEK1 (Homo sapiens, UniProt O14757)
# CHEK1, sequence (O14757 whole entry): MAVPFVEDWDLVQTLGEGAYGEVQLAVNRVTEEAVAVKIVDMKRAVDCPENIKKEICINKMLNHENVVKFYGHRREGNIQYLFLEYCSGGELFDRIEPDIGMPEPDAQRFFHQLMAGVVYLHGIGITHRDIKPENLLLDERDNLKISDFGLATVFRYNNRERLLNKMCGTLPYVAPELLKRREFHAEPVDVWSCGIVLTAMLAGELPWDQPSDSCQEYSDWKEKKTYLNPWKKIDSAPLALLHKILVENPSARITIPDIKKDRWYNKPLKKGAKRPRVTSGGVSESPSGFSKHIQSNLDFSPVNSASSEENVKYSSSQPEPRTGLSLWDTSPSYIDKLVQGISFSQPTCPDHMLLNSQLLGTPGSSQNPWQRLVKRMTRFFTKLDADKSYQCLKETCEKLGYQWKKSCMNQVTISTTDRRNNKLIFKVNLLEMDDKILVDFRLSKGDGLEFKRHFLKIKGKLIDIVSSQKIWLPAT
# [5] = molecular target: DDR1 (Homo sapiens, UniProt Q08345)
# [6] = molecular target: EPHA8 (Homo sapiens, UniProt P29322)
# EPHA8, sequence (P29322 whole entry): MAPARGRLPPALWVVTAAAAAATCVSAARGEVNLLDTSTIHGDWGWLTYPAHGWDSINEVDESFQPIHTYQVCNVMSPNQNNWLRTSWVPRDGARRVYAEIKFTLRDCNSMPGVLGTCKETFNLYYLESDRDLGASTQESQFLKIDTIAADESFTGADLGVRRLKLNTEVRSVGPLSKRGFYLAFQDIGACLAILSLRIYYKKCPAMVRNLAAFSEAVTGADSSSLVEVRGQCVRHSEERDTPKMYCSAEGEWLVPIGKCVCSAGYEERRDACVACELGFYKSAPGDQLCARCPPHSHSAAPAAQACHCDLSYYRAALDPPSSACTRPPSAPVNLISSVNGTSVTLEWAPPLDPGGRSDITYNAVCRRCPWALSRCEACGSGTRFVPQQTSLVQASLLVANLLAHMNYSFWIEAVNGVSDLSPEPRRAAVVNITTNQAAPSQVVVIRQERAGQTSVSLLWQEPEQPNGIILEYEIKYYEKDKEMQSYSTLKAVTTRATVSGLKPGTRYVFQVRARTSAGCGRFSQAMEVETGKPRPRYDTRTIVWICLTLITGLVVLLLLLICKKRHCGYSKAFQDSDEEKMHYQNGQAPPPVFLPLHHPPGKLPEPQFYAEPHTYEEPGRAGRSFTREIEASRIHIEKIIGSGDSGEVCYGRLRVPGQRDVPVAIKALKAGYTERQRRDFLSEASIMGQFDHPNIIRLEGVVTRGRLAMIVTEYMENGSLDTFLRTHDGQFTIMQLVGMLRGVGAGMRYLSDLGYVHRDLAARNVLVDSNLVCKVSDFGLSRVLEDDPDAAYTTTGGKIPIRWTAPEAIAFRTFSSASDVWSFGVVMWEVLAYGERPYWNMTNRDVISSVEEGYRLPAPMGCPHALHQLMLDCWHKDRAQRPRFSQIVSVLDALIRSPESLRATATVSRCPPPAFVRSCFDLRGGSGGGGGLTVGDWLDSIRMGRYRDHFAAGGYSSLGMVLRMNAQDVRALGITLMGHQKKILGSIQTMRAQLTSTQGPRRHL
# [7] = molecular target: HCK (Homo sapiens, UniProt P08631)
# [8] = molecular target: LIMK2 (Homo sapiens, UniProt P53671)
# [9] = molecular target: MAP3K13 (Homo sapiens, UniProt O43283)
# [10] = molecular target: MAP3K5 (Homo sapiens, UniProt Q99683)
# MAP3K5, sequence (Q99683 whole entry): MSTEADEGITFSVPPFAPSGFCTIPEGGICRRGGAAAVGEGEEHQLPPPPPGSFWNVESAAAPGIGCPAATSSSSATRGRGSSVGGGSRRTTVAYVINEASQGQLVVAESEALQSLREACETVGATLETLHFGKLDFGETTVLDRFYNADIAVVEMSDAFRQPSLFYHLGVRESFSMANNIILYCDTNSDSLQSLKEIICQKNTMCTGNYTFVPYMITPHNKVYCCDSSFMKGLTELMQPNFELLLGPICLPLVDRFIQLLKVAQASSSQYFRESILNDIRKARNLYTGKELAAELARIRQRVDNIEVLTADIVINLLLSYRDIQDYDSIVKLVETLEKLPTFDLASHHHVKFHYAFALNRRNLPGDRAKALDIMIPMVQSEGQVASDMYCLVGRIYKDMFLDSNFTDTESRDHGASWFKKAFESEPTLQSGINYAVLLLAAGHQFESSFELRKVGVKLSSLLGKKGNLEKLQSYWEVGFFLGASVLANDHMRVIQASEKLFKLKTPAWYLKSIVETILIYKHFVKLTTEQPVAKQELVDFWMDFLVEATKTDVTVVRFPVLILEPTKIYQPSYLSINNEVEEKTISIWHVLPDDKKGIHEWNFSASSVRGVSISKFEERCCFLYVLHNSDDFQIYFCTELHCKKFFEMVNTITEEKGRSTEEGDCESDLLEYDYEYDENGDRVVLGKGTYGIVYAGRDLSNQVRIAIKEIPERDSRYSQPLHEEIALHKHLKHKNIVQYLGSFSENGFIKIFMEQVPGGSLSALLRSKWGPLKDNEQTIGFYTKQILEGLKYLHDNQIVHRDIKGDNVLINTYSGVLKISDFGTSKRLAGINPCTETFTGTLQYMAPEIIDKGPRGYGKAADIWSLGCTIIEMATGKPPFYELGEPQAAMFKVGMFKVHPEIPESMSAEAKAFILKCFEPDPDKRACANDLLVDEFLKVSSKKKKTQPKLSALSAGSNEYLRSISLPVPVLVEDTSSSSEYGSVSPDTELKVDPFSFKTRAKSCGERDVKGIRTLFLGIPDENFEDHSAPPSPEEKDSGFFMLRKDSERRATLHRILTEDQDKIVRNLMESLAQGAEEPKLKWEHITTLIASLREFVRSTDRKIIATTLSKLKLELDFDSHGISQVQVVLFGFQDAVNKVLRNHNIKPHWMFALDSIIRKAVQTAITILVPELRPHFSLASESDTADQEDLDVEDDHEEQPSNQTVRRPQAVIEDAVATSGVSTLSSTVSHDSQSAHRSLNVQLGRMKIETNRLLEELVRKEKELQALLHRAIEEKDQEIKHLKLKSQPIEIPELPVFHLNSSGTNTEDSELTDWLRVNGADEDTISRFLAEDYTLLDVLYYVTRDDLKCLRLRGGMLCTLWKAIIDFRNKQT
# [11] = molecular target: MAPK12 (Homo sapiens, UniProt P53778)
# MAPK12, sequence (P53778 whole entry): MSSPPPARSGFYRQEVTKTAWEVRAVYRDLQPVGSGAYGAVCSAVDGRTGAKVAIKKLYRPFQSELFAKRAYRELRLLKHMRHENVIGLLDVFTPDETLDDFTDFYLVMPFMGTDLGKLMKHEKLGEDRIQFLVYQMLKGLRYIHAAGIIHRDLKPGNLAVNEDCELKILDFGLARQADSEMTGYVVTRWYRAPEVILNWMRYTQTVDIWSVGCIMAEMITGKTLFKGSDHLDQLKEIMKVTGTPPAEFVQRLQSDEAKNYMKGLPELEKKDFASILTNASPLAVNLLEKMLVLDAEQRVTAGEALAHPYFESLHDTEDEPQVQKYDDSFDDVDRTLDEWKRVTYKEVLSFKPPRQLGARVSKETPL
# [12] = molecular target: NEK1 (Homo sapiens, UniProt Q96PY6)
# [13] = molecular target: T2, PFCDPK1(P.falciparum) (Plasmodium falciparum, UniProt P62344)
# T2 construct: gene CDPK1
# [14] = molecular target: PIKFYVE (Homo sapiens, UniProt Q9Y2I7)
# [15] = molecular target: PTK6 (Homo sapiens, UniProt Q13882)
# PTK6, sequence (Q13882 whole entry): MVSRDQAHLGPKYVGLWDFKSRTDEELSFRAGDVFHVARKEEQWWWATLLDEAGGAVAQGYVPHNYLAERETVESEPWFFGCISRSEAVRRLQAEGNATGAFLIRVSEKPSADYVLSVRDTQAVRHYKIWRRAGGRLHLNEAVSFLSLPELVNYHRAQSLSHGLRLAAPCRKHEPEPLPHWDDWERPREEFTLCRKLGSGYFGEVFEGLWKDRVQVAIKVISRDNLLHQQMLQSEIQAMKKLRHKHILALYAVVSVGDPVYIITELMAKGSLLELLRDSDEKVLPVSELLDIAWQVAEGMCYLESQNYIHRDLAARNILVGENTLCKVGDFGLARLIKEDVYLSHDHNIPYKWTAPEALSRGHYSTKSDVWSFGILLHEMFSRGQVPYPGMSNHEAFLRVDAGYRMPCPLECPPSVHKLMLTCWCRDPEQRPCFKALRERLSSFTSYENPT
# [16] = molecular target: RPS6KB1 (Homo sapiens, UniProt P23443)
# [17] = molecular target: T3, RSK3(Kin.Dom.1-N-terminal) (Homo sapiens, UniProt Q15349)
# T3 construct: gene RPS6KA2; Kin.Dom.1 N-terminal
# [18] = molecular target: STK3 (Homo sapiens, UniProt Q13188)
# STK3, sequence (Q13188 whole entry): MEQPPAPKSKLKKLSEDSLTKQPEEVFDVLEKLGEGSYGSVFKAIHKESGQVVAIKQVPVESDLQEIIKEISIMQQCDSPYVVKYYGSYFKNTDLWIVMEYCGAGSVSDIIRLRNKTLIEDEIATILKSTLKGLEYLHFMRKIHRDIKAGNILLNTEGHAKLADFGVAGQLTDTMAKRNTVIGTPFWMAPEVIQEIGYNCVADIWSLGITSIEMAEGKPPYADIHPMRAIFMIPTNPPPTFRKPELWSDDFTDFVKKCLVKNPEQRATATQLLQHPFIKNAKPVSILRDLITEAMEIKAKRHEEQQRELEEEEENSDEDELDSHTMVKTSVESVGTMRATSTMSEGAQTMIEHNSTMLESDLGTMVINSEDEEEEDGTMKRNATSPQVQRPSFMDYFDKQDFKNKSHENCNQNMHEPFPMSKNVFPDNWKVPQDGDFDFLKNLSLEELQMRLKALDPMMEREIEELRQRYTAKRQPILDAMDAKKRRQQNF
# [19] = molecular target: TNK1 (Homo sapiens, UniProt Q13470)
# [20] = molecular target: ULK2 (Homo sapiens, UniProt Q8IYT8)
smiles,measurement,setting,value
"Oc1ccc(C2=Cc3ccc(O)cc3OC2)cc1 [compound 1, idronoxil]",remaining binding at 10 µM,[1],76%
same,remaining binding at 10 µM,[2],89%
same,remaining binding at 10 µM,[3],67%
same,remaining binding at 10 µM,[4],88%
same,remaining binding at 10 µM,[5],87%
same,remaining binding at 10 µM,[6],89%
same,remaining binding at 10 µM,[7],83%
same,remaining binding at 10 µM,[8],90%
same,remaining binding at 10 µM,[9],84%
same,remaining binding at 10 µM,[10],92%
same,remaining binding at 10 µM,[11],100%
same,remaining binding at 10 µM,[12],71%
same,remaining binding at 10 µM,[13],80%
same,remaining binding at 10 µM,[14],91%
same,remaining binding at 10 µM,[15],100%
same,remaining binding at 10 µM,[16],84%
same,remaining binding at 10 µM,[17],89%
same,remaining binding at 10 µM,[18],93%
same,remaining binding at 10 µM,[19],76%
same,remaining binding at 10 µM,[20],100%
